These compounds were tested against T1, RORγ-LBD (Homo sapiens, UniProt P51449) (assay: RORγ-Ligand Binding Domain (LBD) TR-FRET Assay). Conditions: assay measuring EC50 values less than or equal to 20 μM.
T1 construct: made in house; host or cells: SF9 insect cells, baculovirus; unpurified lysate used
T1 sequence (P51449 269-508 limits assumed): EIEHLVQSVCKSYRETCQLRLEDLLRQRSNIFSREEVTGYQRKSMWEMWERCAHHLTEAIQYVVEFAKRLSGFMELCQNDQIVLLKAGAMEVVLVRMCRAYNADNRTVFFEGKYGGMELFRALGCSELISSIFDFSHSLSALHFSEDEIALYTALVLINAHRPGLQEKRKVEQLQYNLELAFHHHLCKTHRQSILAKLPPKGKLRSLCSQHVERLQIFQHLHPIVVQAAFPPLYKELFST
Assay type: biochemical
Experimental: Exemplary compounds from the above Examples were tested for ability to increase RORγ activity using a RORγ-Ligand Binding Domain (LBD) TR-FRET Assay. Assay procedures and results are described below.
Recombinant, HIS-tagged RORγ-LBD was expressed in SF9 cells using a baculovirus expression system. Cells were lysed and the lysate was used as a source for RORγ-LBD for the assay. A 1:80 dilution of RORγ-LBD lysate in assay buffer (25 mM HEPES pH 7.0, 100 mM NaCl, 0.01% Tween, 0.1% BSA) was prepared and 5 μL was added to each well (RORγ-LBD final concentration ˜3 nM). Control wells received lysate from SF9 cells not expressing RORγ-LBD.
Compounds to be tested were diluted to 100× final test concentration in DMSO and further diluted to 4× final test concentration using assay buffer to provide the test compound mixture. An aliquot (5 μL) of the test compound mixture was added to each well.
A 4× stock of biotinylated-LXXLL peptide from SRC1-2 (Biotin-[…]) was prepared in assay buffer and a 5 μL aliquot added to each well (450 nM final concentration). A 4× solution of europium tagged anti-HIS antibody (2 nM final concentration) and APC conjugated streptavidin (60 nM final concentration) were prepared and a 5 μL aliquot added to each well.
The final assay mixture was incubated for 4 hours to overnight, and the fluorescence signal was measured on an Envision plate reader: (Excitation filter=340 nm; APC emission=665 nm; Europium emission=615 nm; dichroic mirror=D400/D630; delay time=100 μs, integration time=200 μs).
EC50 values for test compounds were calculated from the quotient of the fluorescence signal at 665 nm divided by the fluorescence signal at 615 nm using GraphPad Prism software.

SMILES | promotion of RORγ activity
Cc1cccc(S(=O)(=O)N2CCOc3ccc(OC(C)c4ccccc4)nc32)c1 (stereo not drawn) [Compound 6] | No promotion of RORγ activity was detected

Same assay, conditions: increase of RORγ activity; recombinant HIS-tagged RORγ-LBD, biotinylated SRC1-2 LXXLL peptide

EC50 | SMILES
≤ 15 µM | Cc1cccc(S(=O)(=O)N2CCOc3ccc(OCc4c(Cl)cccc4Cl)nc32)c1 [Compound 5]
≤ 15 µM | Cc1cccc(S(=O)(=O)N2CCOc3ccc(OCc4ccccc4)nc32)c1 [Compound 4]
≤ 15 µM | O=C(Nc1ccc2c(n1)N(S(=O)(=O)c1ccc(F)cc1)CCC2)c1c(F)cccc1F [Compound 1, 2,6-Difluoro-N-(8-(4-fluorobenzenesulfonyl)-5,6,7,8-tetrahydro[1,8]naphthyridin-2-yl)benzamide]
≤ 15 µM | Cc1cccc(S(=O)(=O)N2CCOc3ccc(NC(=O)c4c(Cl)cccc4Cl)nc32)c1 [Compound 2, 2,6-Dichloro-N-[4-(toluene-3-sulfonyl)-3,4-dihydro-2H-pyrido[3,2-b][1,4]oxazin-6-yl]-benzamide]
≤ 15 µM | Cc1cccc(S(=O)(=O)N2CCOc3ccc(NC(=O)C(C)c4ccccc4)nc32)c1 (stereo not drawn) [Compound 3, 2-Phenyl-N-[4-(toluene-3-sulfonyl)-3,4-dihydro-2H-pyrido[3,2-b][1,4]oxazin-6-yl]-propionamide]

Source: US9802958B2, “Tetrahydro[1,8]naphthyridine sulfonamide and related compounds for use as agonists of RORy and the treatment of disease” (Lycera Corporation, priority 2012, dated 2017)
